Laboratory results published in patent US20030153552A1, “Method of treating chemical dependency in mammals and a composition therefor” (priority 2002, published 2003).

Assay: plasma concentration of ibogaine and its metabolite 12-hydroxy ibogamine over time after ibogaine administration to a human patient
Type: in vivo
Protocol: An amount of ibogaine was administered to a human patient, and the plasma concentration of both ibogaine and a metabolite thereof, 12-hydroxy ibogamine, were observed as a function of time.
FIG. 1 illustrates the result of administering a certain dosage of ibogaine to a human patient, where the plasma concentration of ibogaine is measured over time. In essence, a peak plasma concentration of about 1,100 ng/ml is observed at administration. It is also notable that at about 11 hours after ibogaine administration, plasma concentration of ibogaine diminished to less than 400 ng/ml. After about 24 hours, plasma concentration diminished to less than 200 ng/ml. Thus, ibogaine is rather quickly eliminated by the patient.
By contrast, FIG. 2 illustrates the variation of noribogaine plasma concentration with time as a metabolite from the same ibogaine administration described above. In essence, a peak plasma concentration of noribogaine of about 590 ng/ml was reached only after about 11 hours from administration. Thereafter, even at 24 hours, a plasma concentration of greater than 500 ng/ml was observed.

Row | Structure (SMILES) | peak plasma concentration of ibogaine (after ibogaine administration, (FIG. 1)) | concentration at 24 h (plasma, after about 24 hours (FIG. 1)) [ng/mL] | concentration at 11 h (plasma, at about 11 hours after ibogaine administration (FIG. 1)) [ng/mL] | plasma half-life compared with ibogaine (after ibogaine administration) | plasma concentration of noribogaine (at 24 hours, noribogaine as metabolite from ibogaine administration (FIG. 2)) | time to peak plasma concentration of noribogaine (from ibogaine administration, noribogaine as metabolite (FIG. 2)) | peak plasma concentration of noribogaine (noribogaine as metabolite from ibogaine administration (FIG. 2))
1 | CC[C@H]1C[C@H]2C[C@H]3c4[nH]c5ccc(OC)cc5c4CCN(C2)C13 [ibogaine, reference compound] | about 1,100 ng/ml | < 200 | < 400 | – | – | – | –
2 | CC[C@H]1C[C@H]2C[C@H]3c4[nH]c5ccc(O)cc5c4CCN(C2)[C@@H]13 [noribogaine, 12-hydroxy ibogamine] | – | – | – | much longer plasma half-life than ibogaine | greater than 500 ng/ml | about 11 hours | about 590 ng/ml
